We go through 16 molecules from US6919354B2, “1-aryl-or 1-alkylsulfonylbenzazole derivatives as 5-hydroxytryptamine-6 ligands” (Wyeth, priority 2001, dated 2005).

Counter-ions that a name gives are not always drawn.

System in one series: not given
Experiment: not given
Details: not given
Take `O=S(=O)(c1ccc(F)cc1)n1ncc2c(OCCN3CCCCC3)cccc21` (as salt: hydrochloride) [Example 16, 1-[(4-fluorophenyl)sulfonyl]-4-[2-(1-piperidinyl)ethoxy]-1H-indazole]: the melting point is 122 °C (dec.). Same read-out and setting: as for `O=[N+]([O-])c1ccc(S(=O)(=O)n2ncc3c(OCCN4CCCCC4)cccc32)cc1` (as salt: hydrochloride) [Example 15, 1-[(4-nitrophenyl)sulfonyl]-4-[2-(1-piperidinyl)ethoxy]-1H-indazole], the figure is 117 to 119 °C.

In another series the target is T1, human cloned 5-HT6 receptors (Homo sapiens, UniProt P50406).
T1 construct: expressed in transfected cells; host or cells: HeLa cells
T1 sequence (P50406 whole entry): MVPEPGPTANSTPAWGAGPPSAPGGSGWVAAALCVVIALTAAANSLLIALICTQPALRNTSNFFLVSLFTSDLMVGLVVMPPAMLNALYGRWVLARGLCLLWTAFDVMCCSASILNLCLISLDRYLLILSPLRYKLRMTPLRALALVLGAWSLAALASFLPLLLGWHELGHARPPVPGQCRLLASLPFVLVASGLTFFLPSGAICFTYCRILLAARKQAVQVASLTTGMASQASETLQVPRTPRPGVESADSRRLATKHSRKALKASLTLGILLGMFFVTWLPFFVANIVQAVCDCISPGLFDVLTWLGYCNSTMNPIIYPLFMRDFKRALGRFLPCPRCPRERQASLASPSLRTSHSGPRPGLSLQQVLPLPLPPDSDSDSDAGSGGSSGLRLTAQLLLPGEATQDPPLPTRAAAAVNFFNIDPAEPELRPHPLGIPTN
The series can be described thus: 5-HT6 binding affinity, [3H]-LSD displacement from membranes of Hela cells expressing human cloned 5-HT6 receptors. To be noted: 1 μM test compound; [3H]-LSD 3.0 nM. As for the experimental part: The affinity of test compounds for the serotonin 5-HT6 receptor is evaluated in the following manner. Cultured Hela cells expressing human cloned 5-HT6 receptors are harvested and centrifuged at low speed (1,000×g) for 10.0 min to remove the culture media. The harvested cells are suspended in half volume of fresh physiological phosphate buffered saline solution and recentrifuged at the same speed. This operation is repeated. The collected cells are then homogenized in ten volumes of 50 mM Tris.HCl (pH 7.4) and 0.5 mM EDTA. The homogenate is centrifuged at 40,000×g for 30.0 min and the precipitate is collected. The obtained pellet is resuspended in 10 volumes of Tris.HCl buffer and recentrifuged at the same speed. The final pellet is suspended in a small volume of Tris.HCl buffer and the tissue protein content is determined in aliquots of 10-25 μl volumes. Bovine Serum Albumin is used as the standard in the protein determination according to the method described in Lowry et al., J. Biol. Chem., 193:265 (1951). The volume of the suspended cell membranes is adjusted to give a tissue protein concentration of 1.0 mg/ml of suspension. The prepared membrane suspension (10 times concentrated) is aliquoted in 1.0 ml volumes and stored at −70° C. until used in subsequent binding experiments.
Binding experiments are performed in a 96 well microtiter plate format, in a total volume of 200 μl. […] The test compounds are added in 20.0 μl volume.
The reaction is allowed to proceed in the dark for 120 min at room temperature, at which time, the bound ligand-receptor complex is filtered off on a 96 well unifilter with a Packard Filtermate® 196 Harvester. The bound complex caught on the filter disk is allowed to air dry and the radioactivity is measured in a Packard TopCount® equipped with six photomultiplier detectors, after the addition of 40.0 μl Microscint®-20 scintillant to each shallow well. The unifilter plate is heat-sealed and counted in a PackardTopCount® with a tritium efficiency of 31.0%.
Binding in the presence of varying concentrations of test compound is expressed as a percentage of specific binding in the absence of test compound. The results are plotted as log % bound versus log concentration of test compound. […] A linear regression line of data points is plotted, from which the IC50 value is determined and the Ki value is determined based upon the following equation: Ki=IC50/(1+L/KD) where L is the concentration of the radioactive ligand used and KD is the dissociation constant of the ligand for the receptor, both expressed in nM.
For “N,N-Bis(3-methoxybenzyl)-N-(2-{[1-(phenylsulfonyl)-1H-indol-4-yl]oxy}ethylamine [Example 7a]”, the “% inhibition at 1 μM concentration (5-HT6 binding)” value came to 94% @ 1 μM*.

“N-(3-methoxybenzyl)-N-(2-{[1-(phenylsulfonyl)-1H-indol-4-yl]oxy}ethylamineH hydrochloride [Example 7b]”: the “% inhibition at 1 μM concentration (5-HT6 binding)” value is given as 95% @ 1 μM*.

Still in this series, the particulars now being: 1 μM test compound; [3H]-LSD 3.0 nM; read-out: % inhibition at 1 μM concentration (5-HT6 binding).
In the case of `O=S(=O)(c1ccccc1)n1ccc2c(OCCN3CCOCC3)cccc21` [Example 9, 4-(2-Morpholin-4-ylethoxy)-1-(phenylsulfonyl)-1H-indole Hydrochloride], the inhibition at 1 µM is 92%. On to `O=[N+]([O-])c1ccc(S(=O)(=O)n2ncc3c(OCCN4CCCCC4)cccc32)cc1` [Example 15, 1-[(4-nitrophenyl)sulfonyl]-4-[2-(1-piperidinyl)ethoxy]-1H-indazole], for which the inhibition at 1 µM is 76%.

Still in this series, the particulars now being: [3H]-LSD 3.0 nM, Hela cell membranes, 120 min at room temperature.
Consider `NCCOc1cccc2c1cnn2S(=O)(=O)c1ccccc1` [Example 14, 2-{[1-Phenylsulfonyl)-1H-indazol-4-yl]oxy}ethylamine Hydrochloride], for which the affinity, expressed as Ki, was 1 nM.

`O=S(=O)(c1ccccc1)n1ccc2c(OCCNC3CCOCC3)cccc21` [Example 6, N-(2-{[1-(Phenylsulfonyl)-1H-indol-4-yl]oxy}ethyl)tetrahydro-2H-pyran-4-amine Hydrochloride] returned a Ki of 6 nM. `O=S(=O)(c1ccccc1)n1ncc2c(OCCNC3CCOCC3)cccc21` [Example 17] displayed a Ki of 6 nM. Take `NCCOc1cccc2c1ccn2S(=O)(=O)c1ccccc1` [Example 5, 2-{[1-(Phenylsulfonyl)-1H-indole-4-yl]oxy}ethylamine Hydrochloride]: the affinity, expressed as Ki, was 2 nM. For `CN(C)CCOc1cccc2c1ccn2S(=O)(=O)c1ccccc1` [Example 8, N,N-Dimethyl-N-(2-{[1-phenylsulfonyl)-1H-indol-4-yl]oxy}ethylamine Hydrochloride], the affinity, expressed as Ki, was 4 nM. In the case of `O=S(=O)(c1ccc(F)cc1)n1ncc2c(OCCN3CCCCC3)cccc21` [Example 16, 1-[(4-fluorophenyl)sulfonyl]-4-[2-(1-piperidinyl)ethoxy]-1H-indazole], the Ki is 19 nM. Still for that read-out and setting: the same measure for `O=S(=O)(c1ccccc1)n1ncc2c(OCCN3CCCCC3)cccc21` [Example 13, 1-Phenylsulfonyl)-4-[1-piperidinyl)ethoxy]-1H-indazole Hydrochloride]: 2 nM. Same read-out and setting: the same measure for `Nc1ccc(S(=O)(=O)n2ncc3c(OCCN4CCCCC4)cccc32)cc1` [Example 19, 4-({4-[2-(1-Piperidinyl)ethoxy]-1H-indazol-1-yl}sulfonyl)aniline]: 1 nM; for `O=S(=O)(c1ccccc1)n1ncc2c(OCCNC3CCSCC3)cccc21` [Example 18, N-(2-{[1-Phenylsulfonyl)-1H-indazol-4-yl]oxy}ethyl)tetrahydro-2H-thiopyran-4-amine Hydrochloride]: 11 nM; for `O=S(=O)(c1ccccc1)n1ccc2c(OCCN3CCCCC3)cccc21` [Example 10, 1-(Phenylsulfonyl)-4-(2-piperidin-1-ylethoxy)-1H-indole Hydrochloride]: 7 nM.
